# Laboratory results reported in patent publication US20250107513A1, “METHOD FOR COUNTING EMBRYOS DEVELOPING IN A UTERUS OF CAENORHABDITIS ELEGANS” (Shanghai University, priority 2022, published 2025).
# Tested on: Caenorhabditis elegans
# Assay: counting embryos developing in the uterus of Caenorhabditis elegans after TPHP exposure
# Format: in vivo
# Settings: then cultured until pregnancy, relative to the control group, p<0.01
# Procedure: As shown in a flowchart (FIG. 1) of a method in the present invention, this embodiment provides a method for counting embryos developing in a uterus of Caenorhabditis elegans exposed to a chemical of triphenyl phosphate (TPHP) for 72 hours, specifically including the following steps:
# Step 5: Subject Caenorhabditis elegans to synchronization treatment. Nematode eggs are added dropwise to the NGM medium containing no E. coli, the nematode eggs are cultured at 20° C. for 16 to 20 hours under dark conditions, where Caenorhabditis elegans are in the L1 stage, and Caenorhabditis elegans at the stage are rinsed into a 1.5 mL centrifuge tube with the K solution 3 times.
# Step 6: Prepare exposure solutions. 0.1000 g of TPHP solid is weighed accurately, the TPHP solid is dissolved in dimethyl sulfoxide until a concentration reaches 10 g/L, and then TPHP solutions are diluted with dimethyl sulfoxide again until concentrations reach 10 mg/L, 100 mg/L, 1000 mg/L and 5000 mg/L to be used as mother liquors later. Dimethyl sulfoxide is used as the mother liquor of the blank control group. The mother liquors are further diluted by 100 folds with the K solution and then diluting the diluted mother liquors by 100 folds with a K+ solution to finally obtain exposure solutions of Caenorhabditis elegans containing 0 μg/L (control group), 1 μg/L, 10 μg/L, 100 μg/L and 500 μg/L TPHP.
# Step 7: Expose Caenorhabditis elegans to a TPHP solution. A prepared TPHP exposure solution is added to a sterile 6-well plate with 5 mL of prepared TPHP exposure solution per well. Caenorhabditis elegans at the L1 stage are then evenly added to the 6-well plate after the synchronization treatment, Caenorhabditis elegans are fed with 100 μg/L E. coli daily, and Caenorhabditis elegans are cultured for 72 hours.
# Step 8: Select Caenorhabditis elegans at an exposure stage. The method in the present invention is applicable to pregnant Caenorhabditis elegans, and this is because Caenorhabditis elegans are […] after being exposed to TPHP for 72 hours. […]
# Step 11: Count embryos in the uterus of Caenorhabditis elegans. The 24-well plate containing transparent Caenorhabditis elegans is put under an optical stereomicroscope, and exposed embryos of each Caenorhabditis elegans are counted, where exposed embryos of at least 25 nematodes are counted in each treatment group.
# Step 12: Analyze data. Data is analyzed by using SPSS software, a confidence interval of samples is set to 95%, and an intra-group mean and mean error of the numbers of embryos developing in nematodes in different treatment groups are calculated, where the data can be selectively in a format of a mean percentage or multiple based on requirements of the experiment. […]
compound,measurement,setting,value
"O=P(Oc1ccccc1)(Oc1ccccc1)Oc1ccccc1 [TPHP, triphenyl phosphate]",decrease in the numbers of embryos in the uteri,exposure to 1 μg/L TPHP from L1 stage for 72 hours,14.2%
same,decrease in the numbers of embryos in the uteri,exposure to 10 μg/L TPHP from L1 stage for 72 hours,18.2%
same,decrease in the numbers of embryos in the uteri,exposure to 100 μg/L TPHP from L1 stage for 72 hours,18.1%
same,decrease in the numbers of embryos in the uteri,exposure to 500 μg/L TPHP from L1 stage for 72 hours,21.8%
